Target: Coagulation factor IX (Homo sapiens, UniProt P00740)
Test: Test substances were dissolved in buffer A (50 mM α,α,α-tris(hydroxymethyl) methylamine (Tris), 100 mM NaCl, 5 mM CaCl2, 15% (v/v) ethylene glycol, pH 8.0) were mixed with factor IXa (0.1 μg/ml final concentration). The enzyme reaction was started by addition of SPECTROFLUOR FIXa (100 μM final concentration).

Coagulation factor IX, sequence (P00740 47-191 limits assumed): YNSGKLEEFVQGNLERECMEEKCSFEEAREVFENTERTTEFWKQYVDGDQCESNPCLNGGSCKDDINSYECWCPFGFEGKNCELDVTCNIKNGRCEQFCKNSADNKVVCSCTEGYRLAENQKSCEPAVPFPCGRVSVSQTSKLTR
Coagulation factor IX, sequence (P00740 227-461 limits assumed): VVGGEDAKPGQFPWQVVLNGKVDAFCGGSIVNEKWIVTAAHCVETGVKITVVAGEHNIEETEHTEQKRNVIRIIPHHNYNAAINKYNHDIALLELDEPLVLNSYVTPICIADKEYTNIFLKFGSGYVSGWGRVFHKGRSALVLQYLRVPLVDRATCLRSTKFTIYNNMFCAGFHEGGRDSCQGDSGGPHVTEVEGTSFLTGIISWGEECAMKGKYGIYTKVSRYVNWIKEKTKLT

SMILES: Nc1noc2c(N3CCC(NC(=O)c4c(Cl)cc(-n5cnnc5)cc4Cl)(c4ccccc4)C3)cccc12 (stereo unspecified)
- IC50: < 100 nM
